One test relates to Botrytis cinerea. As to the kind of experiment: Inhibition halo for BLAD with and without EDTA against Botrytis cinerea on Potato Dextrose Agar. It is filed as cell-based. As to the method: Inhibition Halo Data for BLAD with and without EDTA Against Botrytis cinerea on Potato Dextrose Agar (PDA) at 1.2% w/v of Agar (Incubation 3 Days at 25° C.): […]
Another test relates to Fusarium oxysporum. The test can be described thus: Inhibition halo for BLAD with and without EDTA against Fusarium oxysporum on Potato Dextrose Agar. The class given is cell-based. The protocol:
Inhibition Halo Data for BLAD with and without EDTA Against Fusarium oxysporum on Potato Dextrose Agar (PDA) at 1.2% w/v of Agar (Incubation 3 Days at 25° C.): […]

A further test concerns Erwinia pirsicina. The test can be described thus: MIC of BLAD and EDTA against Erwinia pirsicina. The class given is cell-based. As to conditions: EDTA alone.
The test system of another test is P. aeruginosa. As to the kind of experiment: Bacteriostatic/bactericidal activity of BLAD, EDTA and their combination against P. aeruginosa. It is filed as cell-based, Pseudomonas aeruginosa. To be noted: EDTA at 1 mg/ml alone.
Another test concerns Streptomyces griseus. The test can be described thus: MIC of BLAD and EDTA against Streptomyces griseus. The class given is cell-based. To be noted: EDTA alone.
Setting [1] is: EDTA 50 mM alone, PDA 1.2% w/v agar, 3 days at 25° C.
Setting [2] is: EDTA 50 mM alone, individual replicates, PDA 1.2% w/v agar, 3 days at 25° C.

For the compound `O=C(O)CN(CCN(CC(=O)O)CC(=O)O)CC(=O)O` [EDTA, ethylenediaminetetraacetic acid], the “Average inhibition halo diameter” value with Botrytis cinerea (setting [1]) and in the test with Fusarium oxysporum (setting [1]) was 0 mm each time. The Inhibition halo diameter in the test on Botrytis cinerea (setting [2]) and in the test on Fusarium oxysporum (setting [2]) was 0 mm throughout. Also, the “growth inhibition (in words)” value in the test on Botrytis cinerea (EDTA alone at 50 mM) and in the test on Fusarium oxysporum (EDTA alone at 50 mM) was “No growth inhibition” in each case. Also, the MIC in the test with Erwinia pirsicina was determined as 15 mM; in the test with Streptomyces griseus it was 16 mM. Besides, the effect on growth result in the test on P. aeruginosa is on record as “inhibits growth”.

For orientation: MIC means the smallest concentration in the dilution series that meets the test's criterion for growth inhibition.

Source of the values: patent US10265376B2, “Use of chelating agent and peptide antimicrobial compounds” (Consumo Em Verde Biotecnologia Das Plantas, S.A., priority 2010, dated 2019).
